Measurements taken from patent EP3046573B1, “AMYLIN ANALOGUES” (Zealand Pharma A/S, priority 2013, dated 2015).
Numbered stars: 1 amine (or outer) side, 2 acyl side, 3 side chain; on linkers, the order of the positions; unused ones are H or OH. Bridge positions count the residues as written; N and C are the ends. Square brackets hold non-standard residues; d marks the D form. Peptide text beside a SMILES is read from it. * marks the point of attachment. C20 diacid = O=C(O)CCCCCCCCCCCCCCCCCCC(=O)*; γGlu = O=C(O)[C@H](CCC(=O)[*:2])N[*:1]; NMeI = CC[C@H](C)[C@H](NC)C(=O)O; Sar = CNCC(=O)O

Assay: Solubility assessment (turbidity absorbance at 325 nm)
Assay type: physicochemical
Conditions: stock 2 mg/ml diluted 1:1, ambient temperature (typically 25°C), n=1; for Solubility, Acetate buffer pH 4: 100 mM acetate buffer pH 4.0; for Solubility, Acetate buffer pH 5: 100 mM acetate buffer pH 5.0; for Solubility, Histidine buffer pH 6: 100 mM histidine buffer pH 6.0; for Solubility, Histidine buffer pH 7: 100 mM histidine buffer pH 7.0; for Solubility, Phosphate buffer pH 6: 100 mM phosphate buffer pH 6.0; for Solubility, Phosphate buffer pH 7: 100 mM phosphate buffer pH 7.0; for Solubility, Phosphate buffer pH 7.5: 100 mM phosphate buffer pH7.5
Description: A stock solution of the test peptide (2 mg/ml; determined from the weighed amount of peptide) in demineralized water adjusted to pH 2.5 with HCI was prepared, and aliquots were diluted 1:1 in 100 mM acetate buffer (pH 4.0 and pH 5.0), 100 mM histidine buffer (pH 6.0 and pH 7.0) and 100 mM phosphate buffer (pH 6.0, pH 7.0 and pH7.5), respectively, and loaded in a standard flat-bottom, non-sterile 96-well UV Microplate. The absorbance of samples (single samples, n=1) at 280 and 325 nm was measured in an absorbance-based plate reader, which was preheated to ambient temperature (typically 25°C). The turbidity absorbance criterion for a peptide solubility of ≥ 1 mg/ml was an absorbance at 325 nm of ≤ 0.02 absorbance units (which is 5 to 6 times the standard deviation of 8 buffer samples in a plate). Solubility data for peptides of the invention, pramlintide, and for a comparison pramlintide derivative denoted NN96 (see Example 5 below for details) are shown in Table 1, below. Table 1. Solubility data for compounds of the invention.

CC[C@H](C)[C@@H](C(=O)N[C@@H](CC(C)C)C(=O)N[C@@H](CO)C(=O)N[C@@H](CO)C(=O)N[C@H](C(=O)N[C@@H](CC(N)=O)C(=O)N[C@H](C(=O)NCC(=O)N[C@@H](CO)C(=O)N[C@@H](CC(N)=O)C(=O)N[C@H](C(=O)N1CCC[C@H]1C(N)=O)[C@@H](C)O)C(C)C)[C@@H](C)O)N(C)C(=O)[C@H](C)NC(=O)CN(C)C(=O)[C@H](Cc1ccccc1)NC(=O)[C@H](CC(N)=O)NC(=O)[C@H](CC(N)=O)NC(=O)[C@H](CO)NC(=O)[C@H](CO)NC(=O)[C@H](Cc1c[nH]cn1)NC(=O)[C@H](Cc1c[nH]cn1)NC(=O)[C@@H](CC(C)C)NC(=O)[C@H](Cc1ccccc1)NC(=O)[C@H](CCC(=O)O)NC(=O)[C@H](C)NC(=O)[C@H](CC(C)C)NC(=O)[C@H](CCCNC(=N)N)NC(=O)[C@H](CCC(N)=O)NC(=O)[C@@H](NC(=O)[C@H](C)NC(=O)[C@@H]1CSSC[C@H](NC(=O)[C@H](CCCNC(=N)N)NC(=O)CC[C@H](NC(=O)CCCCCCCCCCCCCCCCCCC(=O)O)C(=O)O)C(=O)N[C@@H](CC(N)=O)C(=O)N[C@@H]([C@@H](C)O)C(=O)N[C@@H](C)C(=O)N[C@@H]([C@@H](C)O)C(=O)N1)[C@@H](C)O [Compound 10, [19CD]-isoGlu-RC()NTATC()ATQRLAEF-DLeu-HHSSNNF-Gly(Me)-A-Ile(Me)-LSSTNVGSNTP-NH2] ({C20 diacid-γGlu}-RCNTATCATQRLAEF[dL]HHSSNNF[Sar]A[NMeI]LSSTNVGSNTP-NH2; disulfide 2-7)
SS (SS indicates solubility ≥ 1mg/ml): Solubility, Acetate buffer pH 4 | Solubility, Acetate buffer pH 5 | Solubility, Histidine buffer pH 6 | Solubility, Histidine buffer pH 7 | Solubility, Phosphate buffer pH 6 | Solubility, Phosphate buffer pH 7 | Solubility, Phosphate buffer pH 7.5

CC[C@H](C)[C@@H](C(=O)N[C@@H](CC(C)C)C(=O)N[C@@H](CO)C(=O)N[C@@H](CO)C(=O)N[C@H](C(=O)N[C@@H](CC(N)=O)C(=O)N[C@H](C(=O)NCC(=O)N[C@@H](CO)C(=O)N[C@@H](CC(N)=O)C(=O)N[C@H](C(=O)N1CCC[C@H]1C(N)=O)[C@@H](C)O)C(C)C)[C@@H](C)O)N(C)C(=O)[C@H](C)NC(=O)CN(C)C(=O)[C@H](Cc1ccccc1)NC(=O)[C@H](CC(N)=O)NC(=O)[C@@H](CC(N)=O)NC(=O)[C@H](CO)NC(=O)[C@H](CO)NC(=O)[C@H](Cc1c[nH]cn1)NC(=O)[C@H](Cc1c[nH]cn1)NC(=O)[C@H](CC(C)C)NC(=O)[C@H](Cc1ccccc1)NC(=O)[C@H](CCC(=O)O)NC(=O)[C@H](C)NC(=O)[C@H](CC(C)C)NC(=O)[C@H](CCCNC(=N)N)NC(=O)[C@H](CCC(N)=O)NC(=O)[C@@H](NC(=O)[C@H](C)NC(=O)[C@@H]1CSSC[C@H](NC(=O)[C@H](CCCNC(=N)N)NC(=O)CC[C@H](NC(=O)CCCCCCCCCCCCCCCCCCC(=O)O)C(=O)O)C(=O)N[C@@H](CC(N)=O)C(=O)N[C@@H]([C@@H](C)O)C(=O)N[C@@H](C)C(=O)N[C@@H]([C@@H](C)O)C(=O)N1)[C@@H](C)O [Compound 32, [19CD]-isoGlu-RC()NTATC()ATQRLAEFLHHSS-DAsn-NF-Gly(Me)-A-Ile(Me)-LSSTNVGSNTP-NH2] ({C20 diacid-γGlu}-RCNTATCATQRLAEFLHHSS[dN]NF[Sar]A[NMeI]LSSTNVGSNTP-NH2; disulfide 2-7)
SS (SS indicates solubility ≥ 1mg/ml): Solubility, Acetate buffer pH 4 | Solubility, Acetate buffer pH 5 | Solubility, Histidine buffer pH 6 | Solubility, Histidine buffer pH 7 | Solubility, Phosphate buffer pH 6 | Solubility, Phosphate buffer pH 7 | Solubility, Phosphate buffer pH 7.5

CC[C@H](C)[C@@H](C(=O)N[C@@H](CC(C)C)C(=O)N[C@@H](CO)C(=O)N[C@@H](CO)C(=O)N[C@H](C(=O)N[C@@H](CC(N)=O)C(=O)N[C@H](C(=O)NCC(=O)N[C@@H](CO)C(=O)N[C@@H](CC(N)=O)C(=O)N[C@H](C(=O)N1CCC[C@H]1C(N)=O)[C@@H](C)O)C(C)C)[C@@H](C)O)N(C)C(=O)[C@H](C)NC(=O)CN(C)C(=O)[C@H](Cc1ccccc1)NC(=O)[C@@H](CC(N)=O)NC(=O)[C@H](CC(N)=O)NC(=O)[C@H](CO)NC(=O)[C@H](CO)NC(=O)[C@H](Cc1c[nH]cn1)NC(=O)[C@H](Cc1c[nH]cn1)NC(=O)[C@H](CC(C)C)NC(=O)[C@H](Cc1ccccc1)NC(=O)[C@H](CCC(=O)O)NC(=O)[C@H](C)NC(=O)[C@H](CC(C)C)NC(=O)[C@H](CCCNC(=N)N)NC(=O)[C@H](CCC(N)=O)NC(=O)[C@@H](NC(=O)[C@H](C)NC(=O)[C@@H]1CSSC[C@H](NC(=O)[C@H](CCCNC(=N)N)NC(=O)CC[C@H](NC(=O)CCCCCCCCCCCCCCCCCCC(=O)O)C(=O)O)C(=O)N[C@@H](CC(N)=O)C(=O)N[C@@H]([C@@H](C)O)C(=O)N[C@@H](C)C(=O)N[C@@H]([C@@H](C)O)C(=O)N1)[C@@H](C)O [Compound 33, [19CD]-isoGlu-RC()NTATC()ATQRLAEFLHHSSN-DAsn-F-Gly(Me)-A-Ile(Me)-LSSTNVGSNTP-NH2] ({C20 diacid-γGlu}-RCNTATCATQRLAEFLHHSSN[dN]F[Sar]A[NMeI]LSSTNVGSNTP-NH2; disulfide 2-7)
SS (SS indicates solubility ≥ 1mg/ml): Solubility, Acetate buffer pH 4 | Solubility, Acetate buffer pH 5 | Solubility, Histidine buffer pH 6 | Solubility, Histidine buffer pH 7 | Solubility, Phosphate buffer pH 6 | Solubility, Phosphate buffer pH 7 | Solubility, Phosphate buffer pH 7.5

CC[C@H](C)[C@@H](C(=O)N[C@@H](CC(C)C)C(=O)N[C@@H](CO)C(=O)N[C@@H](CO)C(=O)N[C@H](C(=O)N[C@@H](CC(N)=O)C(=O)N[C@H](C(=O)NCC(=O)N[C@@H](CO)C(=O)N[C@@H](CC(N)=O)C(=O)N[C@H](C(=O)N1CCC[C@H]1C(N)=O)[C@@H](C)O)C(C)C)[C@@H](C)O)N(C)C(=O)[C@H](C)NC(=O)CN(C)C(=O)[C@H](Cc1ccccc1)NC(=O)[C@H](CC(N)=O)NC(=O)[C@H](CC(N)=O)NC(=O)[C@H](CO)NC(=O)[C@H](CO)NC(=O)[C@H](CCCNC(=N)N)NC(=O)[C@H](Cc1c[nH]cn1)NC(=O)[C@H](CC(C)C)NC(=O)[C@H](Cc1ccccc1)NC(=O)[C@H](CCC(=O)O)NC(=O)[C@H](C)NC(=O)[C@H](CC(C)C)NC(=O)[C@H](CCCNC(=N)N)NC(=O)[C@H](CCC(N)=O)NC(=O)[C@@H](NC(=O)[C@H](C)NC(=O)[C@@H]1CSSC[C@H](NC(=O)[C@H](CCCCN)NC(=O)CC[C@H](NC(=O)CCCCCCCCCCCCCCCCCCC(=O)O)C(=O)O)C(=O)N[C@@H](CC(N)=O)C(=O)N[C@@H]([C@@H](C)O)C(=O)N[C@@H](C)C(=O)N[C@@H]([C@@H](C)O)C(=O)N1)[C@@H](C)O [Compound 57, [19CD]-isoGlu-KC()NTATC()ATQRLAEFLHRSSNNF-Gly(Me)-A-Ile(Me)-LSSTNVGSNTP-NH2] ({C20 diacid-γGlu}-KCNTATCATQRLAEFLHRSSNNF[Sar]A[NMeI]LSSTNVGSNTP-NH2; disulfide 2-7)
SS (SS indicates solubility ≥ 1mg/ml): Solubility, Acetate buffer pH 4 | Solubility, Acetate buffer pH 5 | Solubility, Histidine buffer pH 6 | Solubility, Histidine buffer pH 7 | Solubility, Phosphate buffer pH 6 | Solubility, Phosphate buffer pH 7 | Solubility, Phosphate buffer pH 7.5
